# Reference: patent US12077503B2, “Substituted cyclic amides and their use as herbicides” (FMC CORPORATION, priority 2015, dated 2024)
# Columns and labels:
# Type in all cases: in vivo
# [1] = test system: ryegrass, Italian (Italian ryegrass, Lolium multiflorum); test: Test A postemergence
# How it was run: (§1)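 Seeded soil received test chemicals as a preemergence directed spray, and seedlings at one to two leaves, 2–10 cm tall, received them postemergence, in a non-phytotoxic, surfactant-containing solvent mixture. Pots were held in a greenhouse for approximately 10 d, then rated for injury from 0, no effect, to 100, complete control.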
# [2] = test system: ragweed (common ragweed, Ambrosia elatior); test: Test A postemergence
# How it was run: as §1
# [3] = test system: wheat (Triticum aestivum); test: Test A postemergence
# How it was run: as §1
# [4] = test system: blackgrass (Alopecurus myosuroides); test: Test A postemergence
# How it was run: as §1
# [5] = test system: pigweed (Amaranthus retroflexus); test: Test A postemergence
# How it was run: as §1
# [6] = test system: giant foxtail (Setaria faberii); test: Test A postemergence
# How it was run: as §1
# [7] = test system: barnyardgrass (Echinochloa crus-galli); test: Test A postemergence
# How it was run: as §1
# Kochia (Kochia scoparia) [8] = test: Test A postemergence
# How it was run: as §1
# corn (Zea mays) = test: Test A postemergence
# How it was run: as §1
# [9] = test system: Galium (catchweed bedstraw, Galium aparine); test: Test A postemergence
# How it was run: as §1
# [10] = test system: ryegrass, Italian (Italian ryegrass, Lolium multiflorum); test: Test A preemergence; conditions: for Ryegrass, Italian plant response rating (0 to 100 scale, 0 is no effect, 100 is complete control): visual injury approx. 10 d
# How it was run: as §1
# [11] = test system: ragweed (common ragweed, Ambrosia elatior); test: Test A preemergence; conditions: for Ragweed plant response rating (0 to 100 scale, 0 is no effect, 100 is complete control): visual injury approx. 10 d
# How it was run: as §1
# [12] = test system: pigweed (Amaranthus retroflexus); test: Test A preemergence; conditions: for Pigweed plant response rating (0 to 100 scale, 0 is no effect, 100 is complete control): visual injury approx. 10 d
# [13] = test system: giant foxtail (Setaria faberii); test: Test A preemergence; conditions: for Foxtail, Giant plant response rating (0 to 100 scale, 0 is no effect, 100 is complete control): visual injury approx. 10 d
# How it was run: as §1
# [14] = test system: barnyardgrass (Echinochloa crus-galli); test: Test A preemergence; conditions: for Barnyardgrass plant response rating (0 to 100 scale, 0 is no effect, 100 is complete control): visual injury approx. 10 d
# How it was run: as §1
# Kochia (Kochia scoparia) [15] = test: Test A preemergence; conditions: for Kochia plant response rating (0 to 100 scale, 0 is no effect, 100 is complete control): visual injury approx. 10 d
# How it was run: as §1
# [16] = test system: sedge, umbrella (small-flower umbrella sedge, Cyperus difformis); test: Test B flooded paddy test; conditions: Flood, 250 g ai/ha; 0 to 100 scale where 0 is no effect and 100 is complete control; 13 to 15 d
# How it was run: (§2)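 Flooding to 3 cm over soil accompanied treatment, which consisted of adding compound to the standing water around 2-leaf plants; depth was then maintained. Visual assessment versus controls followed at 13 to 15 d (scale 0–100, 0 meaning no effect).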
# [17] = test system: ducksalad (Heteranthera limosa); test: Test B flooded paddy test; conditions: Flood, 250 g ai/ha; 0 to 100 scale where 0 is no effect and 100 is complete control; 13 to 15 d
# How it was run: as §2
# [18] = test system: barnyardgrass (Echinochloa crus-galli); test: Test B flooded paddy test; conditions: Flood, 250 g ai/ha; 0 to 100 scale where 0 is no effect and 100 is complete control; 13 to 15 d
# How it was run: as §2
# rice (Oryra sativa) = test: Test B flooded paddy test; conditions: Flood, 250 g ai/ha; 0 to 100 scale where 0 is no effect and 100 is complete control; 13 to 15 d
# How it was run: as §2
# [19] = 125 g ai/ha, postemergence, visual rating after approx. 10 d, 0 to 100 scale (0 no effect, 100 complete control)
# [20] = Postemergence, 500 g ai/ha, 0 to 100 scale where 0 is no effect and 100 is complete control
# [21] = 125 g ai/ha, Preemergence, visual injury after approximately 10 d, 0 to 100 scale where 0 is no effect and 100 is complete control
# [22] = 125 g ai/ha, postemergence, visual injury after approximately 10 d, 0 to 100 scale (0 no effect, 100 complete control)
# [23] = 500 g ai/ha, postemergence, visual injury, 0 to 100 scale (0 no effect, 100 complete control), approx. 10 d
# [24] = 125 g ai/ha, preemergence, visual rating after approx. 10 d, 0 to 100 scale where 0 is no effect and 100 is complete control
# [25] = 500 g ai/ha, preemergence, 0 to 100 scale, 0 = no effect, 100 = complete control
# [26] = 125 g ai/ha, postemergence, visual injury rating on 0 to 100 scale (0 no effect, 100 complete control), approx. 10 d
compound,measurement,setting,value
O=C1NCC(c2cc(Cl)sc2Cl)C1C(=O)Nc1cccc(F)c1F (stereo not drawn) [Compound 601],"Plant response rating, Ryegrass, Italian",[1]; [19],0
same,"Plant response rating, Ryegrass, Italian",[1]; [20],0
same,"Plant response rating, Ragweed",[2]; [19],0
same,"Plant response rating, Ragweed",[2]; [20],0
same,"Plant response rating, Wheat",[3]; [19],0
same,"Plant response rating, Wheat",[3]; [20],20
same,"Plant response rating, Blackgrass",[4]; [19],0
same,"Plant response rating, Blackgrass",[4]; [20],0
same,"Plant response rating, Pigweed",[5]; [19],0
same,"Plant response rating, Pigweed",[5]; [20],0
same,"Plant response rating, Foxtail, Giant",[6]; [19],20
same,"Plant response rating, Foxtail, Giant",[6]; [20],50
same,"Plant response rating, Barnyardgrass",[7]; [19],20
same,"Plant response rating, Barnyardgrass",[7]; [20],70
same,"Plant response rating, Kochia",Kochia (Kochia scoparia) [8]; [19],0
same,"Plant response rating, Kochia",Kochia (Kochia scoparia) [8]; [20],0
same,"Plant response rating, Corn",corn (Zea mays); [19],0
same,"Plant response rating, Corn",corn (Zea mays); [20],20
same,"Plant response rating, Galium",[9]; [19],0
same,"Plant response rating, Galium",[9]; [20],0
same,"Plant response rating, Ryegrass, Italian",[10]; [21],0
same,"Ryegrass, Italian plant response rating (0 to 100 scale, 0 is no effect, 100 is complete control)","[10]; Preemergence, 500 g ai/ha",0
same,"Plant response rating, Ragweed",[11]; [21],0
same,"Ragweed plant response rating (0 to 100 scale, 0 is no effect, 100 is complete control)","[11]; Preemergence, 500 g ai/ha",0
same,"Plant response rating, Pigweed",[12]; [21],0
same,"Pigweed plant response rating (0 to 100 scale, 0 is no effect, 100 is complete control)","[12]; Preemergence, 500 g ai/ha",0
same,"Plant response rating, Foxtail, Giant",[13]; [21],70
same,"Foxtail, Giant plant response rating (0 to 100 scale, 0 is no effect, 100 is complete control)","[13]; Preemergence, 500 g ai/ha",80
same,"Plant response rating, Barnyardgrass",[14]; [21],60
same,"Barnyardgrass plant response rating (0 to 100 scale, 0 is no effect, 100 is complete control)","[14]; Preemergence, 500 g ai/ha",80
same,"Plant response rating, Kochia",Kochia (Kochia scoparia) [15]; [21],0
same,"Kochia plant response rating (0 to 100 scale, 0 is no effect, 100 is complete control)","Kochia (Kochia scoparia) [15]; Preemergence, 500 g ai/ha",0
same,"Plant response rating, Sedge, Umbrella",[16],0
same,"Plant response rating, Ducksalad",[17],75
same,"Plant response rating, Barnyardgrass",[18],40
same,"Plant response rating, Rice",rice (Oryra sativa),0
O=C1NCC(c2cccc(Br)c2)C1C(=O)Nc1ccccc1F (racemic) [Compound 686],"Plant response rating, Ryegrass, Italian",[1]; [22],20
same,"Plant response rating, Ryegrass, Italian",[1]; [23],40
same,"Plant response rating, Ragweed",[2]; [22],20
same,"Plant response rating, Ragweed",[2]; [23],20
same,"Plant response rating, Wheat",[3]; [22],0
same,"Plant response rating, Wheat",[3]; [23],30
same,"Plant response rating, Blackgrass",[4]; [19],20
same,"Plant response rating, Blackgrass",[4]; [23],40
same,"Plant response rating, Pigweed",[5]; [22],0
same,"Plant response rating, Pigweed",[5]; [23],20
same,"Plant response rating, Foxtail, Giant",[6]; [22],80
same,"Plant response rating, Foxtail, Giant",[6]; [23],90
same,"Plant response rating, Barnyardgrass",[7]; [19],90
same,"Plant response rating, Barnyardgrass",[7]; [23],90
same,"Plant response rating, Kochia",Kochia (Kochia scoparia) [8]; [22],0
same,"Plant response rating, Kochia",Kochia (Kochia scoparia) [8]; [23],30
same,"Plant response rating, Corn",corn (Zea mays); [22],0
same,"Plant response rating, Corn",corn (Zea mays); [23],50
same,"Plant response rating, Galium",[9]; [22],0
same,"Plant response rating, Galium",[9]; [23],20
same,"Plant response rating, Ryegrass, Italian",[10]; [24],0
same,"Plant response rating, Ryegrass, Italian",[10]; [25],20
same,"Plant response rating, Ragweed",[11]; [24],0
same,"Plant response rating, Ragweed",[11]; [25],0
same,"Plant response rating, Pigweed",[12]; [24],0
same,"Plant response rating, Pigweed",[12]; [25],20
same,"Plant response rating, Foxtail, Giant",[13]; [21],90
same,"Plant response rating, Foxtail, Giant",[13]; [25],90
same,"Plant response rating, Barnyardgrass",[14]; [21],90
same,"Plant response rating, Barnyardgrass",[14]; [25],90
same,"Plant response rating, Kochia",Kochia (Kochia scoparia) [15]; [21],0
same,"Plant response rating, Kochia",Kochia (Kochia scoparia) [15]; [25],40
same,"Plant response rating, Sedge, Umbrella",[16],0
same,"Plant response rating, Ducksalad",[17],90
same,"Plant response rating, Barnyardgrass",[18],35
same,"Plant response rating, Rice",rice (Oryra sativa),0
O=C1NCC(c2cccc(F)c2F)C1C(=O)Nc1ccc(F)cc1F (stereo not drawn) [Compound 495],"Ryegrass, Italian plant response rating",[1]; [26],0
same,"Plant response rating, Ryegrass, Italian",[1]; [20],20
same,Ragweed plant response rating,[2]; [26],0
same,"Plant response rating, Ragweed",[2]; [20],0
same,Wheat plant response rating,[3]; [26],0
same,"Plant response rating, Wheat",[3]; [20],20
same,Blackgrass plant response rating,[4]; [26],0
same,"Plant response rating, Blackgrass",[4]; [20],20
same,Pigweed plant response rating,[5]; [26],0
same,"Plant response rating, Pigweed",[5]; [20],0
same,"Foxtail, Giant plant response rating",[6]; [26],20
same,"Plant response rating, Foxtail, Giant",[6]; [20],70
same,Barnyardgrass plant response rating,[7]; [26],20
same,"Plant response rating, Barnyardgrass",[7]; [20],80
same,Kochia plant response rating,Kochia (Kochia scoparia) [8]; [26],30
same,"Plant response rating, Kochia",Kochia (Kochia scoparia) [8]; [20],30
same,Corn plant response rating,corn (Zea mays); [26],0
same,"Plant response rating, Corn",corn (Zea mays); [20],30
same,Galium plant response rating,[9]; [26],0
same,"Plant response rating, Galium",[9]; [20],0
same,"Plant response rating, Ryegrass, Italian",[10]; [21],0
same,"Ryegrass, Italian plant response rating (0 to 100 scale, 0 is no effect, 100 is complete control)","[10]; Preemergence, 500 g ai/ha",20
same,"Plant response rating, Ragweed",[11]; [21],0
same,"Ragweed plant response rating (0 to 100 scale, 0 is no effect, 100 is complete control)","[11]; Preemergence, 500 g ai/ha",0
same,"Plant response rating, Pigweed",[12]; [21],0
same,"Pigweed plant response rating (0 to 100 scale, 0 is no effect, 100 is complete control)","[12]; Preemergence, 500 g ai/ha",20
same,"Plant response rating, Foxtail, Giant",[13]; [21],90
same,"Foxtail, Giant plant response rating (0 to 100 scale, 0 is no effect, 100 is complete control)","[13]; Preemergence, 500 g ai/ha",90
same,"Plant response rating, Barnyardgrass",[14]; [21],30
same,"Barnyardgrass plant response rating (0 to 100 scale, 0 is no effect, 100 is complete control)","[14]; Preemergence, 500 g ai/ha",90
same,"Plant response rating, Kochia",Kochia (Kochia scoparia) [15]; [21],20
same,"Kochia plant response rating (0 to 100 scale, 0 is no effect, 100 is complete control)","Kochia (Kochia scoparia) [15]; Preemergence, 500 g ai/ha",30
same,"Plant response rating, Sedge, Umbrella",[16],0
same,"Plant response rating, Ducksalad",[17],75
same,"Plant response rating, Barnyardgrass",[18],35
same,"Plant response rating, Rice",rice (Oryra sativa),0
